Assay results reported in US9290511B2, “Thieno-pyrimidines, useful as potassium channel inhibitors” (XENTION LIMITED, priority 2011, dated 2016).

Target: T1, Kir3.1/3.4 (Rattus norvegicus, UniProt P48548+P63251)
T1 construct: expressed in transfected cells
T1 sequence (P63251 1-501): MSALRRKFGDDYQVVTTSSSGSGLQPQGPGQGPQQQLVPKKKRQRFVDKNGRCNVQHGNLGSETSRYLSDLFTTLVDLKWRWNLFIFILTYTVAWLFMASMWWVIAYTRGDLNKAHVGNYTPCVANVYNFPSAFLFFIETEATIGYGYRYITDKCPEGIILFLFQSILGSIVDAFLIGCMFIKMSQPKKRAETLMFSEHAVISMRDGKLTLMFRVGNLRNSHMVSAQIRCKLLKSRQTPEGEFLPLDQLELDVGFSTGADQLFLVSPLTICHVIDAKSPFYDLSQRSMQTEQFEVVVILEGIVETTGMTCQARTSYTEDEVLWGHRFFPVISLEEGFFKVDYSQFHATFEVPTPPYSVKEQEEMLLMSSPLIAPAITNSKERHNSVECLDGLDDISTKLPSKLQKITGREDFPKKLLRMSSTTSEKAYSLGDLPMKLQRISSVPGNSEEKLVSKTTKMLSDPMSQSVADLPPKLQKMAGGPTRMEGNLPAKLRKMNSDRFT
T1 sequence (P48548 1-419): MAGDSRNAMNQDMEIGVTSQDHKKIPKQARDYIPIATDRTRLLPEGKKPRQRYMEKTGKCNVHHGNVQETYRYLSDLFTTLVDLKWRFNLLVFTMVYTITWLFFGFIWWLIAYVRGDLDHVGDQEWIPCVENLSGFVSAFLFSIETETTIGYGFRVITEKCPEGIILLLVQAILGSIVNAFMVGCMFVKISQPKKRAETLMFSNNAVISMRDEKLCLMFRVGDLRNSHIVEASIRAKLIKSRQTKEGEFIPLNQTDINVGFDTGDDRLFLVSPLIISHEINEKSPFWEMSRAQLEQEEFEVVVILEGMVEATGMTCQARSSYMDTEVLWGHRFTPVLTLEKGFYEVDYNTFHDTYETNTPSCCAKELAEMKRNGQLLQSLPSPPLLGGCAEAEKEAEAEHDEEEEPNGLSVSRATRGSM
Assay: Kir3.1/3.4 Electrophysiology Method (manual whole-cell patch clamp)
Format: cell-based
Conditions: Electrophysiology Method (TABLE 1)
Procedure: Compound activity against the recombinant G-protein activated inward rectifier current encoded by the heterotetramer Kir3.1/3.4 was assessed using manual whole-cell patch technique. The heterotetramer forms the pore-forming channel that conducts the acetylcholine/adenosine-activated potassium current in the heart.
For whole-cell patch-clamp studies, cells (Human Embryonic Kidney 293 stably transfected with rat Kir3.1/3.4) were seeded onto glass coverslips before recordings were made. Cells were seeded in sterile 30 mm Petri dishes at a density to enable isolated cells to be selected for patch clamp experiments. The dishes were stored in a humidified, gassed (5% CO2) incubator at 37° C. until use.
Whole-cell patch-clamp recordings of membrane currents were made following gigaohm seal formation between the patch electrode and the cell using HEKA EPC-9/10 amplifiers controlled by Pulse Software (Ver8.5x/8.6×/8.7×, HEKA, Germany). Coverslips seeded with cells were placed in a recording chamber mounted on the stage of an inverted microscope. During the experiment, the cell of interest was continuously superfused with bather solution delivered via a cannula placed in close proximity to the cell to enable control of the extracellular solution environment. Only those cells with a current <−500 pA (current at −140 mV) were used for experiments. During experiments, series resistance was compensated by a minimum of 70%.
Electrophysiology voltage-step protocols and analysis of data were performed as follows. Data was sampled at 5 kHz, and filtered with a −3 dB bandwidth of 2.5 kHz. Cells were held at a voltage of −60 mV. Currents were evoked by a depolarising voltage step to +60 mV (100 ms) before a ramp-repolarisation (0.4 V·s^−1) to −140 mV (100 ms) before returning to −60 mV. The command waveform was repeatedly applied every 10 s throughout the experiment. Mean currents during 1-99% of the time at −140 mV were analysed using Pulsefit software (v8.x, HEKA, Germany). The voltage protocol was repeatedly applied to achieve a stable current baseline in bather before the test substance was superfused via the cannula in close proximity to the cell under investigation. The test substance was allowed to equilibrate during which time voltage protocol was repeatedly applied and recorded. On reaching steady-state inhibition, the cell was superfused with an identical bather solution containing zero external potassium chloride (replaced by equimolar NaCl). The identical current measurement was made in the absence of potassium to assess the passive leak at −140 mV. The leak current was subtracted from the control and steady-state drug current values. The percentage inhibition of the leak-subtracted current in the presence of test substance was calculated relative to the control leak-subtracted pre-drug value. Internal patch-pipette solution contained in mM: 110 KCl, 20 NaCl, 0.9 GTPγS, 5 Mg-ATP, 5 EGTA, 10 HEPES, pH7.2 corrected with KOH. The external superfusate composition in mM was: 150 (or 160) NaCl, 10 (or 0) KCl, 3 CaCl2, 1 MgCl, 10 HEPES, pH 7.4 corrected with NaOH.

Molecule | IC50
CC(C)c1csc2ncnc(N3C4CCC3CC(COCCN3CCCC3)C4)c12 (centres unmarked) [Example 287] | < 0.5 µM
COc1ncccc1-c1csc2ncnc(N3C4CCC3CC(COCCN3CCCC3)C4)c12 (centres unmarked) [Example 363] | < 0.5 µM
COc1ncc(F)cc1-c1csc2ncnc(N3C4CCC3CC(NC3CCC3)C4)c12 (centres unmarked) [Example 346] | 0.5 to 3 µM
c1cc(-c2csc3ncnc(N4CCC(COCCN5CCCC5)CC4)c23)ccn1 [Example 311] | 0.5 to 3 µM
O=C(NCCO)c1sc2ncnc(N3CCC(COCCN4CCCC4)CC3)c2c1-c1ccccc1 [Example 280] | 0.5 to 3 µM
c1ccc(-c2csc3ncnc(N4CC5C(COCCN6CCOCC6)C5C4)c23)cc1 (centres unmarked) [Example 38, 4-[2-[[3-(5-phenylthieno[2,3-d]pyrimidin-4-yl)-3-azabicyclo[3.1.0]hexan-6-yl]methoxy]ethyl]morpholine] | 0.5 to 3 µM
CN1CCCC1CNCC1CCN(c2ncnc3scc(-c4ccccc4)c23)CC1 (centres unmarked) [Example 84, N-[(1-methylpyrrolidin-2-yl)methyl]-1-[1-(5-phenylthieno[2,3-d]pyrimidin-4-yl)-4-piperidyl]methanamine] | < 0.5 µM
Cc1ccccc1-c1csc2ncnc(N3C4CCC3CC(NC3CCC3)C4)c12 (centres unmarked) [Example 344] | < 0.5 µM
CN(C)CCCN(C)CC1CCN(c2ncnc3scc(-c4ccccc4)c23)CC1 [Example 72, N,N,N′-trimethyl-N′-[[1-(5-phenylthieno[2,3-d]pyrimidin-4-yl)-4-piperidyl]methyl]propane-1,3-diamine] | < 0.5 µM
COCC1CCN(c2nc(CCN3CCCC3)nc3scc(-c4ccc(F)cc4)c23)CC1 [Example 184, 5-(4-fluorophenyl)-4-[4-(methoxymethyl)-1-piperidyl]-2-(2-pyrrolidin-1-ylethyl)thieno[2,3-d]pyrimidine] | < 0.5 µM
CC(C)NC(=O)c1sc2ncnc(N3CCC(COCCN4CCCC4)CC3)c2c1C(C)C [Example 264] | 0.5 to 3 µM
CC(C)c1csc2ncnc(N3CC4CC3CC4OCCN3CC[C@@H](F)C3)c12 (some centres unmarked) [Example 295] | < 0.5 µM
c1nc(N2CCC(COCCN3CCCC3)CC2)c2c(-c3ccc4c(c3)OCO4)csc2n1 [Example 319] | < 0.5 µM
CN1CCC[C@H]1CCNCC1CCN(c2ncnc3scc(-c4ccccc4)c23)CC1 [Example 100] | < 0.5 µM
c1ccc(-c2csc3ncnc(N4CC[C@H](COCCN5CCCC5)C4)c23)cc1 [Example 263] | < 0.5 µM
CN1CCCC1CCNCC1CCN(c2ncnc3scc(-c4ccccc4)c23)C1 (centres unmarked) [Example 204] | < 0.5 µM
c1ccc(-c2csc3ncnc(N4CCC(CNCc5ccco5)CC4)c23)cc1 [Example 61, 1-(2-furyl)-N-[[1-(5-phenylthieno[2,3-d]pyrimidin-4-yl)-4-piperidyl]methyl]methanamine] | < 0.5 µM
CC(C)NC(=O)c1sc2ncnc(N3C4CCC3CC(COCCN3CCCC3)C4)c2c1-c1ccccc1 (centres unmarked) [Example 357] | < 0.5 µM
OC1CCCN(CC2CCN(c3ncnc4scc(-c5ccccc5)c34)CC2)C1 (centres unmarked) [Example 55, 1-[[1-(5-phenylthieno[2,3-d]pyrimidin-4-yl)-4-piperidyl]methyl]piperidin-3-ol] | 0.5 to 3 µM

Continued, values first:

IC50 | Molecule
< 0.5 µM | CN(CCC1CCCN1)CC1CCN(c2ncnc3scc(-c4ccccc4)c23)CC1 (centres unmarked) [Example 86, N-methyl-N-[[1-(5-phenylthieno[2,3-d]pyrimidin-4-yl)-4-piperidyl]methyl]-2-pyrrolidin-2-yl-ethanamine]
< 0.5 µM | CN(CCC1CCCN1C)CC1CCN(c2ncnc3scc(-c4ccccc4)c23)CC1 (centres unmarked) [Example 101]
< 0.5 µM | COCC1CCN(c2nc(CC(=O)NCCN3CCCC3)nc3scc(-c4ccccc4)c23)CC1 [Example 182]
< 0.5 µM | c1nc(N2CCC(COCCN3CCCC3)CC2)c2c(-c3ccsc3)csc2n1 [Example 317]
< 0.5 µM | CN(C)CCN(C)CC1CCN(c2ncnc3scc(-c4ccccc4)c23)CC1 [Example 71, N,N,N′-trimethyl-N′-[[1-(5-phenylthieno[2,3-d]pyrimidin-4-yl)-4-piperidyl]methyl]ethane-1,2-diamine]
< 0.5 µM | CN1CCCCC1CCNCC1CCN(c2ncnc3scc(-c4ccccc4)c23)CC1 (centres unmarked) [Example 80, 2-(1-methyl-2-piperidyl)-N-[[1-(5-phenylthieno[2,3-d]pyrimidin-4-yl)-4-piperidyl]methyl]ethanamine]
< 0.5 µM | c1ccc(-c2csc3nc(N4CCC(COCCN5CC6CC5CO6)CC4)ncc23)cc1 (centres unmarked) [Example 154]
< 0.5 µM | Cc1sc2ncnc(N3CCC(CNC4CCN(C)CC4)CC3)c2c1C [Example 232]
< 0.5 µM | CN1CCC(NC2CCN(c3ncnc4scc(-c5ccccc5)c34)CC2)CC1 [Example 223]
< 0.5 µM | CN(C)[C@H]1CCCN(CC2CCN(c3ncnc4scc(-c5ccccc5)c34)CC2)C1 [Example 215]
< 0.5 µM | CN1CCCCC1CCOCC1CCN(c2ncnc3scc(-c4cccc(F)c4)c23)CC1 (centres unmarked) [Example 36, 5-(3-fluorophenyl)-4-[4-[2-(1-methyl-2-piperidyl)ethoxymethyl]-1-piperidyl]thieno[2,3-d]pyrimidine]
< 0.5 µM | c1ccc(-c2csc3nc(N4CCC(COCCN5CCCC5)C4)ncc23)cc1 (centres unmarked) [Example 149]
< 0.5 µM | C=CCNCC1CCN(c2ncnc3scc(-c4ccccc4)c23)CC1 [Example 94, N-[[1-(5-phenylthieno[2,3-d]pyrimidin-4-yl)-4-piperidyl]methyl]prop-2-en-1-amine]
< 0.5 µM | NC(=O)[C@H]1CCCN1CCOC1CC2CC1CN2c1ncnc2scc(-c3ccccc3)c12 (some centres unmarked) [Example 293]
< 0.5 µM | O[C@H]1CN(CC2CCN(c3ncnc4scc(-c5ccccc5)c34)CC2)C[C@@H]1N1CCCC1 [Example 67, (3S,4S)-1-[[1-(5-phenylthieno[2,3-d]pyrimidin-4-yl)-4-piperidyl]methyl]-4-pyrrolidin-1-yl-pyrrolidin-3-ol]
< 0.5 µM | 5-phenyl-thieno[2,3-d]pyrimidine [Example 160]
< 0.5 µM | CN1CCCC1CCNCC1CCN(c2ncnc3scc(-c4ccccc4)c23)CC1 (centres unmarked) [Example 58, 2-(1-methylpyrrolidin-2-yl)-N—[[1-(5-phenylthieno[2,3-d]pyrimidin-4-yl)-4-piperidyl]methyl]ethanamine]
< 0.5 µM | c1ccc(-c2csc3ncnc(N4CC5CC4CC5OCCN4CCCC4)c23)cc1 (centres unmarked) [Example 284]
< 0.5 µM | CN1CCC(N(C)CC2CCN(c3ncnc4scc(-c5ccccc5)c34)C2)C1 (centres unmarked) [Example 205]
< 0.5 µM | CN1CCC(N(C)CC2CCN(c3ncnc4sc(Br)c(-c5ccccc5)c34)CC2)C1 (centres unmarked) [Example 266]
< 0.5 µM | Fc1ccc(-c2csc3nc(N4CCC(COCCN5CCCC5)CC4)ncc23)cc1 [Example 152]
< 0.5 µM | COCC1CCN(c2nc(NCCN3CCCC3)nc3scc(-c4ccccc4)c23)CC1 [Example 175]
